In patent US20240197733A1, “A GABA RECEPTOR MODULATOR FOR USE IN THE TREATMENT OF PAIN” (SANIONA A/S, priority 2021, published 2024):

Key:
[1] = system: electrocutaneous stimulation-induced facial pain rodent model; assay: ES-induced facial pain model, mechanical allodynia (Von Frey filaments), acute treatment; format: in vivo, Sprague-Dawley rats; details: for effect on mechanical allodynia (mechanical pain threshold, Von Frey) vs vehicle: acute
Excerpt: The electrocutaneous stimulation-induced facial pain rodent model is a reproducible orofacial pain model in which depilated cheek area of rats are repeatedly subjected to electrical stimulation. Repeated electrical stimulation at low intensities produces craniofacial pain that mimics the behavioral characteristics of TN such as development of mechanical and thermal allodynia at cheeks despite no visible edema, swelling or excessive injury and tissue damage.
Male wild type, Sprague-Dawley rats (Charles River Laboratories) born in-house at AfaSci Research Laboratory between May 24, 2020 to May 28, 2020. At approximately 3 months of age (approximately 350 g-450 g body weight) the rats were deemed suitable for the electrocutaneous stimulation-induced facial pain model. Prior to the experiment, the rats were maintained in group cages (3 rats per cage) in a controlled environment (temperature: 21.5±4.5° C./relative humidity: 35-55%) under a standard 12 h light/12 h dark lighting cycle (lights on at 06:00).
The required quantity of the compounds are weighed and dissolved in 100% DMSO in a volume amounting to 5% of the total volume while placed on a stirrer. The weight of the compounds refers to the free base weights. Once the solution becomes clear/transparent, the remaining volume of the vehicle is added (30% HPBCD prepared in MQ water) to final concentrations of 0.1, 0.3, and 1 mg/ml for Compound 1 and 3 mg/ml of Carbamazepine. The solutions are kept on a stirrer before- and during administration of the compounds to the animals.
The experimenter assessing the behavioral responses to drug administration is blinded to the drug treatment to the animals. Each treatment group is coded according the scheme below: • A. Vehicle (5% DMSO+30% HPBCD): 10 ml/kg • B. Compound 1: 1 mg/kg • C. Compound 1: 3 mg/kg • D. Compound 1: 10 mg/kg • F. Carbamazepine: 30 mg/kg
Second baseline measurement was carried out similarly to day 1. […] For each animal, the average of the two baseline nociceptive measurements were calculated within each pain modality (mechanical, heat- and cold pain), and used as baseline (“Baseline” point on figures).
Similarly, to day 1- and 2, all rats were subjected to acclimatization to test equipment and decapicone followed by measurements of ES-induced facial mechanical- heat- and cold allodynia (“0” time point on figures). […] Compound 1, vehicle and Carbamazepine was administered perorally in doses of 1, 3, and 10 mg/kg (Compound 1) or 30 mg/kg (carbamazepine) and drug effects on pain thresholds were evaluated 2- and 4 hours after drug administration by assessment of mechanical- (von Frey) and thermal hypersensitivity (heat- and cold stimulation respectively).
Decrease in ES-induced pain threshold was evaluated 22 hours following electrical stimulation of the depilated left cheek area (between the eye and ear ridge, this is a receptive field of trigeminal nerve) of each rat and was manifested as facial withdrawal following application of Von Frey filaments for mechanical allodynia and a heat lamp and acetone test for thermal hyperalgesia and allodynia respectively. Baseline pain behaviors were measured similarly to ES-induced facial pain measurements, except that rats were not subjected to ES stimulation.
Mechanical pain thresholds were assessed by measuring each rat's facial withdrawal threshold (g) in response to von Frey monofilaments (BioSeb). […]

[2] = system: electrocutaneous stimulation-induced facial pain rodent model; assay: ES-induced facial pain model, prophylactic treatment, overall conclusion (mechanical and thermal tests); format: in vivo, Sprague-Dawley rats; details: po
Description: Unless stated otherwise, the same materials, methods, and provisions of Example 1 were applied to Example 2. The experimenter assessing the behavioral responses to drug administration is blinded to the drug treatment to the animals. Each treatment group is coded according the scheme below: • A. Vehicle (5% DMSO+30% HPBCD): 10 ml/kg • B. Compound 1: 0.3 mg/kg • C. Compound 1: 1 mg/kg • D. Compound 1: 3 mg/kg • F. Compound 1: 3 mg/kg—acute Second baseline measurement was carried out similarly to day 1, For each animal, the average of the two baseline nociceptive measurements was calculated within each pain modality (mechanical, heat- and cold pain), and used as baseline (“Baseline” point on figures). Then all rats in the above respective group (A-D) are given treated as mentioned. Group F received vehicle treatment. Treatment is continued once daily to each group same as Day 2 All rats were treated with respective treatment as per day 3-7. After 1 hr of treatment, each rat was subjected to 1 hr of electrocutaneous stimulation at depilated cheek (0.4 mA intensity, 10 ms duration, 1 s inter-pulse interval). […] Treatment effects on pain thresholds were evaluated 2- and 4 hours after administration by assessing mechanical- (Von Frey) and thermal (heat and cold) withdrawal threshold.

[3] = target: GABAA receptors containing the a5 subunit (Homo sapiens, UniProt P18507+P31644); details: cited from earlier work
Sequence of GABAA receptors containing the a5 subunit (P31644 32-462): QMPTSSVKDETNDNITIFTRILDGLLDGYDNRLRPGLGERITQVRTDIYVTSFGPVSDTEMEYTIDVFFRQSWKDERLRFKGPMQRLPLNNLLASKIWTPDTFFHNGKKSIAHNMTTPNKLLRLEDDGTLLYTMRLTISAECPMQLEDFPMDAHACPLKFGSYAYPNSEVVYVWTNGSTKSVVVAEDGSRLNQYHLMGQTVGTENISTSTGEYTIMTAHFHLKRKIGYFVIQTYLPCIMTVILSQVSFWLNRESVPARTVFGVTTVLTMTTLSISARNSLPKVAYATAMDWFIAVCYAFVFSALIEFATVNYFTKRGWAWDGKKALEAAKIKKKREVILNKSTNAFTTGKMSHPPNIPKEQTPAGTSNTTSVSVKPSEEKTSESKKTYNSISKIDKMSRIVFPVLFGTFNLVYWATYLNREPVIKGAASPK
Sequence of GABAA receptors containing the a5 subunit (P47870 25-512 partner limits assumed): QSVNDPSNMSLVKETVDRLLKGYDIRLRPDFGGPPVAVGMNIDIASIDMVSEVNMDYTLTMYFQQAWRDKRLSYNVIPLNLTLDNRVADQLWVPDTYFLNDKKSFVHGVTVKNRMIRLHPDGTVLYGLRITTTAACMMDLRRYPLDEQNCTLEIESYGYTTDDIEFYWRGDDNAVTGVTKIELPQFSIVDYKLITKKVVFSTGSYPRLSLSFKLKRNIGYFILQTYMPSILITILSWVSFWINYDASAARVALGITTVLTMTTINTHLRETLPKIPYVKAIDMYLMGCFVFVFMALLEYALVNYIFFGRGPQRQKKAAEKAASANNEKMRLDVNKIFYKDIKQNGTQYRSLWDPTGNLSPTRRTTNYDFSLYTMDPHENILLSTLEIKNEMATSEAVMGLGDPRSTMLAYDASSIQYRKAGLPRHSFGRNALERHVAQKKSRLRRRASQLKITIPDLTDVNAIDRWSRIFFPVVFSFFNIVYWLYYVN
Sequence of GABAA receptors containing the a5 subunit (P18507 40-475): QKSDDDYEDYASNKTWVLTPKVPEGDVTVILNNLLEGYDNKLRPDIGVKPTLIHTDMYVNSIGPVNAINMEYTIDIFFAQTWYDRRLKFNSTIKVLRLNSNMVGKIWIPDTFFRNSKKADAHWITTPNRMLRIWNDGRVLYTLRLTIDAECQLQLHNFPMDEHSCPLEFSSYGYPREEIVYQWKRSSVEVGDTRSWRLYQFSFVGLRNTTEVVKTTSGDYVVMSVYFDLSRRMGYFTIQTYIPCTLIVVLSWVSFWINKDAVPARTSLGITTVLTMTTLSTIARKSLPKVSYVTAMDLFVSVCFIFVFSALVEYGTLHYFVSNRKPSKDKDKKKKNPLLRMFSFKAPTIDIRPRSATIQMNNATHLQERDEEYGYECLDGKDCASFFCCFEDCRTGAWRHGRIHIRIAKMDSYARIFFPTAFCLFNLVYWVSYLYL

## COc1ncc(-c2cccc(-n3cnc4cc(C(C)(C)O)cnc43)c2)c(OC)n1 [Compound 1, 2-(3-(3-(2,4-dimethoxypyrimidin-5-yl)phenyl)-3H-imidazo[4,5-b]pyridin-6-yl)propan-2-ol]
[1]; 3 mg/kg po, 4 hours post dosing, p<0.05 vs vehicle
  effect on mechanical allodynia (mechanical pain threshold, Von Frey) vs vehicle: significant analgesic effect
[1]; 10 mg/kg po, 2 hrs, p<0.05 vs vehicle
  effect on mechanical allodynia (mechanical pain threshold, Von Frey) vs vehicle: reversed the mechanical allodynia
[1]; 10 mg/kg po, 4 hours post dosing, p<0.0001 vs vehicle
  effect on mechanical allodynia (mechanical pain threshold, Von Frey) vs vehicle: significant analgesic effect
[1]; 10 mg/kg po, post 4 hrs of treatment
  analgesic effect on mechanical allodynia compared with carbamazepine 30 mg/kg p.o.: comparable analgesic effect with carbamazepine
[2]; once daily dose of 3 mg/kg, prophylactic
  analgesic effect compared with 10 mg/kg acute dose of Compound 1 or 30 mg/kg of Carbamazepine: same analgesic effect
[2]; prophylactic treatment for 7 days, once daily dose
  development of ES-induced sensitization (hypersensitivity to mechanical and thermal stimulus): significantly reduced the development of ES-induced sensitization of the trigeminal sensory system
[3]
  positive allosteric modulation of GABAA receptors containing the a5 subunit: to a minor extent
